Data: patent US5942511A, “Allylthiopyridazine derivatives and process for preparing the same” (Kwon; Soon Kyoung, priority 1998, dated 1999)

Experiments:
hepatocyte necrosis [1] = assay: Effect of inhibiting hepatic disorder induced by acetaminophen (APAP): hepatocyte necrosis; type: in vivo, male ICR mice; conditions: APAP model, 50 mg/kg per day oral, 3 days; for Degree of necrosis 0: number of animals: grade 0 no lesion; for Degree of necrosis 1: number of animals: grade 1 mild lesion; for Degree of necrosis 2: number of animals: grade 2 moderate lesion; for Degree of necrosis 3: number of animals: grade 3 severe lesion; for Degree of necrosis 4: number of animals: grade 4 diffused lesion
Method: (§1) In the present invention, the inhibiting effect of the compound of formula (I) on hepatic disorder, induced by carbon tetrachloride and acetaminophene, was determined after oral administration of the novel compound according to the present invention to mouse as the experimental animal for 3 days. The degree of liver damage in respective experimental animal was determined by measuring ALT and LDH levels in blood [see, Biol. Pharm. Bull., 20, 4, 381-385, 1997; Toxicology and Applied Pharmacology, 95, 1-11, 1988], and further by removing the liver, staining (×100) the liver with hematoxylin and eosin and then observing with microscope to examine the degree of hepatocyte necrosis.
(§2) In addition, liver was removed from the test animals, stained (×100) with hematoxylin and eosin and then observed by microscope. The degree of hepatocyte necrosis was evaluated according to the following 5 grades: 0 no lesion, 1 mild lesion, 2 moderate lesion, 3 severe lesion and 4 diffused lesion.
(§3) The liver protective effect of the compound according to the present invention was examined according to the known method [see, Wang et al., Toxicology and applied Pharmacology, 136, 146-154, 1996] as specifically described below.
(§4) The compound according to the present invention was suspended in corn oil and the resulting suspension was administered in an amount of 1.0 ml/kg. Each group was composed of 3 to 10 male ICR mice (5-6 weeks) and the test compound was orally administered for 3 days in the dose of 50 mg/kg per day. After 2 hours from the last administration of the test compound, acetaminophen was orally administered in an amount of 0.5 g/kg. In this experiment, silymarin was used as the comparative compound. After 22 hours from the administration of acetaminphen, blood was taken from the individual test animal and ALT and LDH values in serum were determined. The results as obtained are described in the following Tables 4 and 5 (in which ALT and LDH values are represented by mean±SE). In addition, liver was removed from the test animals and then observed according to the same manner as Experiment 3 to evaluate the degree of hepatocyte necrosis.

[2] = tested on: serum LDH (lactate dehydrogenase); assay: Effect of inhibiting hepatic disorder induced by acetaminophen (APAP): serum LDH; type: in vivo, male ICR mice; conditions: APAP 0.5 g/kg oral, compound 50 mg/kg per day oral, 3 days; for Serum LDH value: mean±SE
Text: (§5) In addition, the liver protective effects of the compound of the present invention can also be confirmed by acetaminophen model [see, Wang et al., Toxicology and applied Pharmacology, 136, 146-154, 1996]. Acetaminophen is rapidly metabolized by CYP2E1 to cause hepatic toxicity, which results in structural and functional change in liver cellular membrane, causing necrosis in hepatic lobule, an increase in blood ALT and LDH (lactate dehydrogenase) levels.
as §1
(§6) Effect of inhibiting hepatic disorder induced by acetaminophen (APAP)
as §3, §4

hepatocyte necrosis [3] = assay: Effect of inhibiting hepatic disorder induced by carbon tetrachloride: hepatocyte necrosis; type: in vivo, male ICR mice; conditions: CCl4 model, 50 mg/kg per day oral, 3 days; for Degree of necrosis 1: number of animals: grade 1 mild lesion; for Degree of necrosis 2: number of animals: grade 2 moderate lesion; for Degree of necrosis 3: number of animals: grade 3 severe lesion; for Degree of necrosis 4: number of animals: grade 4 diffused lesion
Method: as §1
(§7) The liver protective effect of the compound according to the present invention was examined according to the known method [see, Philippe letteron et al., Biochemical Pharmacology, 39, 12, 2027-2034, 1990] as specifically described below.
(§8) The compound according to the present invention was suspended in corn oil and the resulting suspension was administered in an amount of 1.0 ml/kg. Each group was composed of 3 to 10 male ICR mice (5-6 weeks) and the test compound was orally administered for 3 days in the dose of 50 mg/kg per day. After the test compound was administered, carbon tetrachloride was intraperitoneally injected in an amount of 100 μl/kg. In this experiment, silymarin was used as the comparative compound. After 24 hours from administration of carbon tetrachloride, blood was taken from the test animal by cardiac perforation and ALT value in serum was determined. The result obtained is described in the following Table 2 (in which ALT value is represented by mean±SE). The ALT unit in serum was determined by centrifuging blood to separate serum as the supernatant, and then the separated serum were subjected to Reitman-Frankel method by means of a commercially available kit (BC101-O,P, Youngdong Pharm.). That is, DL-alanine and α-ketoglutarate were used as the substrate solution to which 2,4-dinitrophenylhydrazine was added to produce hydrazone. Then, sodium hydroxide was added to hydrazone to colorize and then the absorbance was measured at 505 nm.
as §2

[4] = tested on: serum ALT (alanine aminotransferase); assay: Effect of inhibiting hepatic disorder induced by acetaminophen (APAP): serum ALT; type: in vivo, male ICR mice; conditions: APAP 0.5 g/kg oral, compound 50 mg/kg per day oral, 3 days; for Serum ALT value: mean±SE
Text: as §5, §1, §6, §3, §4

radiation damage = assay: Protective effect against radiation damage: survival of mouse; type: in vivo, male ICR mouse; conditions: 100 mg/kg per day, 2 days
Text: Further, the present inventors have confirmed the protective effect of allylthiopyridazine derivative according to the present invention against radiation by administering the active compound to mouse, irradiating the radiation of 8 or 9Gy and, after a certain period, measuring the survival rate of mouse. For example, the survival rate during 30 days of 8Gy radiation can be seen from FIG. 3, and the specific experimental result is described in the following Table 7. Specifically, when 8Gy radiation is used, the survival rate during 30 days in the groups which only radiation was used was merely 48%, whereas the survival rates during 30 days in the groups to which the compounds of Examples 4 and 8 are previously administered were 76% and 70%, respectively. Therefore, it can be noted that the protective effect of the compound according to the present invention against radiation is proven to be a very significant novel discovery.
Protective effect against radiation damage
In order to confirm the protective effect of the compound of the present invention against radiation damage, the following test was conducted.
Male ICR mouse was bred in a chamber to which sterile atmosphere is supplied, at inner temperature 20-23° C. and relative humidity 50% with sufficient water and feed. When the weight of mouse reached 20-25 g, the compound of the present invention was suspended in corn oil and then administered for 2 days in the dose of 100 mg/kg (1 ml/kg) per day. After 3 hours from the last administration of the test compound, 8 or 9 Gy radiation was irradiated to mouse. Specifically, mouse was introduced into a box made of acryl which limited his movement, and then radiation produced from ^60 Co radioactive material was irradiated to whole body at the irradiating rate of 115.8 cGy/min. The dimension of acryl box was 31×31 cm^2, which is the same as the irradiating area of radiation. After 7 days of irradiation of γ-ray, mouse was sacrificed to conduct the histopathologic observation. The result of examining the survival rate during 30 days of irradiation of 8 Gy radiation is shown in FIG. 3, and the result of determining the survival rate after a certain period (10, 13 or 30 days) from irradiation of 8 or 9 Gy radiation is described in the following Table 7.

[5] = tested on: serum ALT (alanine aminotransferase); assay: Effect of inhibiting hepatic disorder induced by carbon tetrachloride: serum ALT; type: in vivo, male ICR mice; conditions: CCl4 100 μl/kg i.p., compound 50 mg/kg per day oral, 3 days; for Serum ALT value: mean±SE
Text: First, the effects of allylthiopyridazine derivative of formula (I) for prevention and treatment of hepatic diseases was examined using carbon tetrachloride model and acetaminophen model.
Carbon tetrachloride model [see, Philippe letteron et al., Biochemical Pharmacology, 39, 12, 2027-2034, 1990] is most frequently used as an experimental model of hepatic disorder and has been established on the basis of the fact that carbon tetrachloride is converted into trichloromethyl free radical (CCl3 .), a highly toxic metabolite, by the action of cytochrome P-450 in body. This metabolite strongly binds with thiol group of liver microsomal membrane protein to produce a lipid radical, which is then converted into peroxy radical in the presence of oxygen, thereby stimulating the peroxidation reaction of membrane lipid. That is, carbon tetrachloride inhibits protein biosynthesis in liver, increases blood ALT (alanine aminotransferase) and causes centrilobular necrosis of liver cells.
as §1
Effect of inhibiting hepatic disorder induced by carbon tetrachloride
as §7, §8

[6] = tested on: microsomal epoxide hydrolase (mEH) and glutathione S-transferases (GST); conditions: literature; cited from earlier work
[7] = literature; cited from earlier work
[8] = literature; cited from earlier work; remark: listed apart in the source
[9] = induced by carbon tetrachloride and acetaminophen; cited from earlier work

Row | Structure (SMILES) | Degree of necrosis 0: number of animals (hepatocyte necrosis [1]) | Degree of necrosis 1: number of animals (hepatocyte necrosis [1]) | Degree of necrosis 2: number of animals (hepatocyte necrosis [1]) | Degree of necrosis 3: number of animals (hepatocyte necrosis [1]) | Degree of necrosis 4: number of animals (hepatocyte necrosis [1]) | Inhibiting rate (serum LDH) [2] | Serum LDH value [2] | Degree of necrosis 1: number of animals (hepatocyte necrosis [3]) | Degree of necrosis 2: number of animals (hepatocyte necrosis [3]) | Degree of necrosis 3: number of animals (hepatocyte necrosis [3]) | Degree of necrosis 4: number of animals (hepatocyte necrosis [3]) | Inhibiting rate (serum ALT) [4] | Serum ALT value [4] | Inhibiting rate (serum ALT) [5] | Serum ALT value [5] | effect on oncogenesis and hepatotoxicity of 1,2-dimethylhydrazine [8] | other results
1 | C=CCSc1ccc(OCC)nn1 [Example 8] | 7 | 0 | 2 | 0 | 0 | 95.6% | 1193 ± 546 KA unit/l | 1 | 2 | 1 | 3 | 99% | 98 ± 26 KA unit/l | 33% | 6123 ± 2230 KA unit/l | – | survival number (radiation damage; 10 days of 9 Gy radiation): 17/23; survival rate (radiation damage; 10 days of 9 Gy radiation): 74%; survival number (radiation damage; 13 days of 9 Gy radiation): 5/23; survival rate (radiation damage; 13 days of 9 Gy radiation): 22%; survival number (radiation damage; 30 days of 8 Gy radiation): 16/23; survival rate (radiation damage; 30 days of 8 Gy radiation): 70%
2 | C=CCSc1ccc(OCCC)nn1 [Example 12, 3-(n-propoxy)-6-allylthiopyridazine] | 0 | 1 | 1 | 1 | 3 | 59% | 5480 ± 2346 KA unit/l | 0 | 2 | 3 | 4 | 25% | 2749 ± 1352 KA unit/l | 40% | 5585 ± 705 KA unit/l | – | Degree of necrosis 0: number of animals (hepatocyte necrosis [3]; grade 0 no lesion): 0
3 | Cc1c(-c2cnccn2)ssc1=S [Oltipraz] | – | – | – | – | – | – | – | – | – | – | – | – | – | – | – | – | expression rate of mEH and GST [6]: increases the expression rate of microsomal epoxide hydrolase (mEH) and glutathione S-transferases (GST); protection of cellular tissue from radiation [7]: protect the cellular tissue from radiation
4 | C=CCS[S+]([O-])CC=C (stereo not drawn) [allicin] | – | – | – | – | – | – | – | – | – | – | – | – | – | – | – | inhibiting oncogenesis due to 1,2-dimethylhydrazine and protecting liver from hepatotoxicity of 1,2-dimethylhydrazine | –
5 | C=CCSCC=C [diallyl sulfide] | – | – | – | – | – | – | – | – | – | – | – | – | – | – | – | inhibiting oncogenesis due to 1,2-dimethylhydrazine and protecting liver from hepatotoxicity of 1,2-dimethylhydrazine | –
6 | CC(C)OC(=O)C(C(=O)OC(C)C)=C1SC=CS1 [malotilate] | – | – | – | – | – | – | – | – | – | – | – | – | – | – | – | – | effect of preventing and treating hepatic diseases [9]: good effect of preventing and treating hepatic diseases induced by carbon tetrachloride and acetaminophen
